Test results: ChEMBL document CHEMBL5678818, “Discovery of potent SOS1 inhibitors that block RAS activation via disruption of the RAS-SOS1 interaction” (Proc Natl Acad Sci U S A, 2019)

Tests used:
[1] = molecular target: Serine/threonine-protein kinase PAK 6 (Homo sapiens) (UniProt Q9NQU5); assay: Inhibition of PAK6 (unknown origin) assessed as residual activity at 100 nM by KINOMEscan analysis relative to control
[2] = molecular target: Tyrosine-protein kinase JAK1 (Homo sapiens) (UniProt P23458); assay: Inhibition of JAK1 JH2 pseudokinase domain (unknown origin) assessed as residual activity at 100 nM by KINOMEscan analysis relative to control
[3] = molecular target: Microtubule-associated serine/threonine-protein kinase 1 (Homo sapiens) (UniProt Q9Y2H9); assay: Inhibition of MAST1 (unknown origin) assessed as residual activity at 100 nM by KINOMEscan analysis relative to control
[4] = molecular target: T1, Ephrin type-A receptor 1 (Homo sapiens) (UniProt P21709); assay: Inhibition of EPHA1 (unknown origin) assessed as residual activity at 100 nM by KINOMEscan analysis relative to control
T1 sequence (whole entry): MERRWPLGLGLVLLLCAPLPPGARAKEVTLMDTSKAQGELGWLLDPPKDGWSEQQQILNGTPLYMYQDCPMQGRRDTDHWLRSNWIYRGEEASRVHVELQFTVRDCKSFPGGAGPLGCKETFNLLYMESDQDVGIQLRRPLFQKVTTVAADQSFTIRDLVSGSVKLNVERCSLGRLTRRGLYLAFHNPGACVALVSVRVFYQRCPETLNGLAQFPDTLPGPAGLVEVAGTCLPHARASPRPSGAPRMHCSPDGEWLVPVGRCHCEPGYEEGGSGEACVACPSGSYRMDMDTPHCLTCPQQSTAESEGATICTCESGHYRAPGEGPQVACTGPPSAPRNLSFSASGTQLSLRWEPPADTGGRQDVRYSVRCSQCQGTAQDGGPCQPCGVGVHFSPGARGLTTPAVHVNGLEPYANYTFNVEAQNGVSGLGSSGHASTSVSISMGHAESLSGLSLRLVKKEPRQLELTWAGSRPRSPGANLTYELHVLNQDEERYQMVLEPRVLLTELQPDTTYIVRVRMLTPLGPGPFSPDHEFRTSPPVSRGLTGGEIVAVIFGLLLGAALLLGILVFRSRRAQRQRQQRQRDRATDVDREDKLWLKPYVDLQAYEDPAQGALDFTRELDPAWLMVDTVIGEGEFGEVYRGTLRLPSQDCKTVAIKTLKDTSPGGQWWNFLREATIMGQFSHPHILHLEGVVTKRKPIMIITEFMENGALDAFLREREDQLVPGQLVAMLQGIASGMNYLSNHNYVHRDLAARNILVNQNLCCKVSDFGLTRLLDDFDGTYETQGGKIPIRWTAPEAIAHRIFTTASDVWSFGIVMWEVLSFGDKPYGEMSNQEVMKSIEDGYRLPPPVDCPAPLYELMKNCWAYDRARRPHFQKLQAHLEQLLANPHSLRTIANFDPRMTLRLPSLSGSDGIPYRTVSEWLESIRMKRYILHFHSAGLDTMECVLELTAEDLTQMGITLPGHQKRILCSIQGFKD

[5] = molecular target: T2, Inhibitor of nuclear factor kappa-B kinase subunit alpha (Homo sapiens) (UniProt O15111); assay: Inhibition of IKK-alpha (unknown origin) assessed as residual activity at 100 nM by KINOMEscan analysis relative to control
T2 sequence (whole entry): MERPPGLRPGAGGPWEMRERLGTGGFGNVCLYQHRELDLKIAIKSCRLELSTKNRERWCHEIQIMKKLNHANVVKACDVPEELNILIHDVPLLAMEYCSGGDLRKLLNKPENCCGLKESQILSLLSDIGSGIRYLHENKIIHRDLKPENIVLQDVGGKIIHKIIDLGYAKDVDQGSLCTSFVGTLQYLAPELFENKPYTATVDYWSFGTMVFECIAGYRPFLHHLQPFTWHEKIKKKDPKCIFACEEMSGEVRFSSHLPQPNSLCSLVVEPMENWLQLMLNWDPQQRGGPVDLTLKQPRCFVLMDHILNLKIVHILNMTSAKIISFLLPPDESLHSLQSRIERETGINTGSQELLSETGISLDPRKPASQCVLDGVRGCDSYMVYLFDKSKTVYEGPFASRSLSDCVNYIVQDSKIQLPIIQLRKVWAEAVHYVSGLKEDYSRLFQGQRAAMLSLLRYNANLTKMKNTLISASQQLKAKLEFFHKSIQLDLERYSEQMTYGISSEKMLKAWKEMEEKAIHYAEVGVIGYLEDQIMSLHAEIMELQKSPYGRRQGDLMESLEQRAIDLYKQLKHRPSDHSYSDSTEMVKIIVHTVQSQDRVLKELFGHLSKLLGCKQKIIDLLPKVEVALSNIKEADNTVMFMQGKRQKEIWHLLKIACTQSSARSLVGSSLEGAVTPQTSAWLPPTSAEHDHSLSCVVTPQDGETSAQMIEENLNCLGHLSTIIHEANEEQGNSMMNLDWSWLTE

[6] = molecular target: Mast/stem cell growth factor receptor Kit (Homo sapiens) (UniProt P10721); assay: Inhibition of autoinhibited KIT (unknown origin) assessed as residual activity at 100 nM by KINOMEscan analysis relative to control
[7] = molecular target: SRSF protein kinase 1 (Homo sapiens) (UniProt Q96SB4); assay: Inhibition of SRPK1 (unknown origin) assessed as residual activity at 100 nM by KINOMEscan analysis relative to control
[8] = molecular target: T3, Interleukin-1 receptor-associated kinase 4 (Homo sapiens) (UniProt Q9NWZ3); assay: Inhibition of IRAK4 (unknown origin) assessed as residual activity at 100 nM by KINOMEscan analysis relative to control
T3 sequence (whole entry): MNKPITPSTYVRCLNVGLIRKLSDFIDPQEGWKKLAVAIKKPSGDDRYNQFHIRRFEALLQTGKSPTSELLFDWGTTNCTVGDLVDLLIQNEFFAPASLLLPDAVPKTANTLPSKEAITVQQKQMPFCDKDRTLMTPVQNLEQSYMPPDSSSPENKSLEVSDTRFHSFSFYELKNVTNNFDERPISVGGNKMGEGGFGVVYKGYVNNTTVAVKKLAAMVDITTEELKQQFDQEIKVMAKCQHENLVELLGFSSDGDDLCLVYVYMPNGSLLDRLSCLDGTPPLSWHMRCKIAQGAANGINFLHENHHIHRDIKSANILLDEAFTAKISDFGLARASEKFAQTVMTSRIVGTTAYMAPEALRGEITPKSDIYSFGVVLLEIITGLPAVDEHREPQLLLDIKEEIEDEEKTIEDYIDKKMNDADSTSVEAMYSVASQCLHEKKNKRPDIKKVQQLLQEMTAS

Mast/stem cell growth factor receptor Kit (Homo sapiens), sequence (P10721 whole entry): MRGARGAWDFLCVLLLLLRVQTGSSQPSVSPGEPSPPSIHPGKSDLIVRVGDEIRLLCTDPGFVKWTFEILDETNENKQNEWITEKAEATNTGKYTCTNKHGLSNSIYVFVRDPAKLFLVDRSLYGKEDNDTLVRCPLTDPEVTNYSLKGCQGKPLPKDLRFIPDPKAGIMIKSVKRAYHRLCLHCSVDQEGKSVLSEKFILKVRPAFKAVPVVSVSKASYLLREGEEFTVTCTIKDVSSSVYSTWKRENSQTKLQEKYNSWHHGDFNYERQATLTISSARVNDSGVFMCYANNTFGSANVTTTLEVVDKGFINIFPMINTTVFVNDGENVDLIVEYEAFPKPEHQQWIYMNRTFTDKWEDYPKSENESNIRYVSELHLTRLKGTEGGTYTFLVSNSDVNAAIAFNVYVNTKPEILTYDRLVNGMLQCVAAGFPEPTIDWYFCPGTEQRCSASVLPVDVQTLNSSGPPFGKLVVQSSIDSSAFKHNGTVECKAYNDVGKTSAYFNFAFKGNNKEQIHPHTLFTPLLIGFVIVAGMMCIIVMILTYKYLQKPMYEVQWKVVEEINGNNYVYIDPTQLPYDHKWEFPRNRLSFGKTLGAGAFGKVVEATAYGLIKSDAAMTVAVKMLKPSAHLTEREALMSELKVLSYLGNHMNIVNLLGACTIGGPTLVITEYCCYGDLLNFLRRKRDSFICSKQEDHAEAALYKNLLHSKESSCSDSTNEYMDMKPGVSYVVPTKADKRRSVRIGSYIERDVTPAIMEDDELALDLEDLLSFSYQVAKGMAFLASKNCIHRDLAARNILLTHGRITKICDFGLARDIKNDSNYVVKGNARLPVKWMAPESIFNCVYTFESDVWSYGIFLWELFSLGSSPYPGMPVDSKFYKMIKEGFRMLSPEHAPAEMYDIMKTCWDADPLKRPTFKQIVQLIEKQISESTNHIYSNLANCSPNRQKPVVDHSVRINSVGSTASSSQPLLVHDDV
Serine/threonine-protein kinase PAK 6 (Homo sapiens), sequence (Q9NQU5 whole entry, looked up, the tested form may be a part): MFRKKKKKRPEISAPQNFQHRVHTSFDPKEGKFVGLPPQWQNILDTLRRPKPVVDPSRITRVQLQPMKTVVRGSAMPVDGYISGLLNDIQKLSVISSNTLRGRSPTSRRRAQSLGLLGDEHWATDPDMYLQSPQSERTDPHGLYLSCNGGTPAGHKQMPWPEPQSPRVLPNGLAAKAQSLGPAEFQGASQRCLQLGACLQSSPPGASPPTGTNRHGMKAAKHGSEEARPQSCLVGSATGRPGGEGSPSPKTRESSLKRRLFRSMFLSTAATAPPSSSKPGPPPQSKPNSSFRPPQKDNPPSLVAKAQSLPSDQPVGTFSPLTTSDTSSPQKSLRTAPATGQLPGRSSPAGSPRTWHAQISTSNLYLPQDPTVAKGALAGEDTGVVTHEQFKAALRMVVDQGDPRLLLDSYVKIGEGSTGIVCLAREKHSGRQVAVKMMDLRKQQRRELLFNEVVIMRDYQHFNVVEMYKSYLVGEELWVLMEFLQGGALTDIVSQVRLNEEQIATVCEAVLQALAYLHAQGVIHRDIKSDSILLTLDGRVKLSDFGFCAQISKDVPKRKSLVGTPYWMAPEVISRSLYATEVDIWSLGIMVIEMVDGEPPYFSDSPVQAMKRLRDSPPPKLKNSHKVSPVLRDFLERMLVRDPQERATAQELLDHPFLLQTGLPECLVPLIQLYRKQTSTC
Tyrosine-protein kinase JAK1 (Homo sapiens), sequence (P23458 whole entry, the tested form may be a part): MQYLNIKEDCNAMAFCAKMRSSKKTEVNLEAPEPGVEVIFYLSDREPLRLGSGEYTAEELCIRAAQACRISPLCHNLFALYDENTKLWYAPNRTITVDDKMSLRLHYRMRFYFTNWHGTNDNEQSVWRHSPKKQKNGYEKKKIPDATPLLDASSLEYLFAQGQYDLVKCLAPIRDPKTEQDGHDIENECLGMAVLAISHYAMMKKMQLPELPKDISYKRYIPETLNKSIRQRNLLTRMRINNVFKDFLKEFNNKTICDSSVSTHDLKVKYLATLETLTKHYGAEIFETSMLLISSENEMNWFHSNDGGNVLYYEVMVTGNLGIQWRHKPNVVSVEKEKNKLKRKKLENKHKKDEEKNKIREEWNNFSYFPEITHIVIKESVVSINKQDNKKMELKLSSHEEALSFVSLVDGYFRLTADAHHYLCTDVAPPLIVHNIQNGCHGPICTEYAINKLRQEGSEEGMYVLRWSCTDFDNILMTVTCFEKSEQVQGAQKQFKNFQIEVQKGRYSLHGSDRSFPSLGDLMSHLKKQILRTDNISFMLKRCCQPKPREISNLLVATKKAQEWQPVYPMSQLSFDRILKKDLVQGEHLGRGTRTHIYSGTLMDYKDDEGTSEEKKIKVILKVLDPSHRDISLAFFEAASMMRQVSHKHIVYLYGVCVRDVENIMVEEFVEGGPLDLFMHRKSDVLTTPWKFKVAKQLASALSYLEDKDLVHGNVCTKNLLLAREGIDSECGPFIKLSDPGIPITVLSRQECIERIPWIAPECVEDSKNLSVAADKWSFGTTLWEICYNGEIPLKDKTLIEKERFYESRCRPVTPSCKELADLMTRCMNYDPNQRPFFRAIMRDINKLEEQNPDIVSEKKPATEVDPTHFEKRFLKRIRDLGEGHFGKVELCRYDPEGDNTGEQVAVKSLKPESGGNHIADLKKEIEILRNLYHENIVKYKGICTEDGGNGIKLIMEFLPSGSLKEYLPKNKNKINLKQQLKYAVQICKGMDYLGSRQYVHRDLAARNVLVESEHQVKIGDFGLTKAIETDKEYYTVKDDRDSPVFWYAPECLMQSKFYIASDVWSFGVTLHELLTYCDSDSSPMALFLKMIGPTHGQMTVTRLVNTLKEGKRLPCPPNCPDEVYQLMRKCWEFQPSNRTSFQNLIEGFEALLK
Microtubule-associated serine/threonine-protein kinase 1 (Homo sapiens), sequence (Q9Y2H9 whole entry, looked up): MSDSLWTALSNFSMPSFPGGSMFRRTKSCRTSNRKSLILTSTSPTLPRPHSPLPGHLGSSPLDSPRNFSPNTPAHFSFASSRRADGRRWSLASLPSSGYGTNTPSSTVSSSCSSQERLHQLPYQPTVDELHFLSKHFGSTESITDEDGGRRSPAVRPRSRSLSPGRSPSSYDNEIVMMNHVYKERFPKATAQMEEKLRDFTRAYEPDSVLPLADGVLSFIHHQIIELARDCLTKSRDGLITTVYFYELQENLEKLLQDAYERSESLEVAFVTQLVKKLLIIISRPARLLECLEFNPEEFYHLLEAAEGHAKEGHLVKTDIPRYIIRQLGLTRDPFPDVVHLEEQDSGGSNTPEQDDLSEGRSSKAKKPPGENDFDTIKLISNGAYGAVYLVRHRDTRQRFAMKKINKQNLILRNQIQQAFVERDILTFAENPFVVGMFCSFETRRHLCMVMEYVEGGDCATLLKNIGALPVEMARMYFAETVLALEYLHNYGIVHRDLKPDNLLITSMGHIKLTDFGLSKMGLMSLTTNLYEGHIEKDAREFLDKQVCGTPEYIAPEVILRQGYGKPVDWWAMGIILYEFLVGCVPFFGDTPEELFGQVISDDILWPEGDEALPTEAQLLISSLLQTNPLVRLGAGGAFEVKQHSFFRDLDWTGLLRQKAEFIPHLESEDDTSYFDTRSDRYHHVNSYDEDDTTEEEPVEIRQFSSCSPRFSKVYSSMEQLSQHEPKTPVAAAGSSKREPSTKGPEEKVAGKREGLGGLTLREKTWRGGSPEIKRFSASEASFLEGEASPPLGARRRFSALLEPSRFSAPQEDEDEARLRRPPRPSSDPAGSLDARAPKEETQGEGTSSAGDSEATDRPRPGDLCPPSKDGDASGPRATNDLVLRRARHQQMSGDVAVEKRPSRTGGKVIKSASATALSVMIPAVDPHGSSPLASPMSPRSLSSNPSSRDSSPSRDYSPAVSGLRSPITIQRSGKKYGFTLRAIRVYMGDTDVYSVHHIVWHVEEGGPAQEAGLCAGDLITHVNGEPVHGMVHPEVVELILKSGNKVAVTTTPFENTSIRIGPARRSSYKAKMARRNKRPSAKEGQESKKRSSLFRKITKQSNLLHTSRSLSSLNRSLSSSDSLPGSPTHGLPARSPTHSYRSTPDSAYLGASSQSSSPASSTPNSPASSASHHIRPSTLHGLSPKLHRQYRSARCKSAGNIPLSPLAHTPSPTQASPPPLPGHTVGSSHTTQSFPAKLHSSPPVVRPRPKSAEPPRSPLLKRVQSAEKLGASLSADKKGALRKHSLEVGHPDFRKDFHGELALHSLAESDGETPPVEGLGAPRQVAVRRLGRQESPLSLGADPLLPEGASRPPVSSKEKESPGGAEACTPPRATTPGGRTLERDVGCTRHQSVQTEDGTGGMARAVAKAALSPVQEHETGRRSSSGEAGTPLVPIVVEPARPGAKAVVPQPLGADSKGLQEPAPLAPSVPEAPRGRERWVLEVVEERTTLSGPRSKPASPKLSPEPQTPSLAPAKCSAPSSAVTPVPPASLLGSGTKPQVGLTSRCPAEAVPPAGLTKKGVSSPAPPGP
SRSF protein kinase 1 (Homo sapiens), sequence (Q96SB4 whole entry): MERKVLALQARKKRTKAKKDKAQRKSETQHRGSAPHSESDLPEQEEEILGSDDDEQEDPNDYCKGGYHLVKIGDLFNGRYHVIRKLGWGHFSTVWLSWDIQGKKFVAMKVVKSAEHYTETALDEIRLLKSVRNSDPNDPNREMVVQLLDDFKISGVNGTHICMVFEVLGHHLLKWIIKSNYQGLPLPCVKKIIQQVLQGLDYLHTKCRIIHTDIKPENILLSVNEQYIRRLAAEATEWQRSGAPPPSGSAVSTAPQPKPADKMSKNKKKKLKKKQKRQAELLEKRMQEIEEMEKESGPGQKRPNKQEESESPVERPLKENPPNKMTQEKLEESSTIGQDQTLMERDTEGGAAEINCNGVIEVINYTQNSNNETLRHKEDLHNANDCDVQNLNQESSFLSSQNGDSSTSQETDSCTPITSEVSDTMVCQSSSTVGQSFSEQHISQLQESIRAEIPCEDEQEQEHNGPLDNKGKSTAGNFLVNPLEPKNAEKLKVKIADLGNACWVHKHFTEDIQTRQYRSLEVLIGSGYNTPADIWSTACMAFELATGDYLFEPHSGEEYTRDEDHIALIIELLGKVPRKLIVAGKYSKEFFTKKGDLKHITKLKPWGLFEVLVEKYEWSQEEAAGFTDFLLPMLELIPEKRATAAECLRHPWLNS

COc1cc2ncnc(N[C@H](C)c3cccc4ccccc34)c2cc1OC
Activity [1]: 92% | Activity [2]: 100% | Activity [3]: 71% | Activity [4]: 75% | Activity [5]: 79% | Activity [6]: 91% | Activity [7]: 95% | Activity [8]: 94%
